Assay results published in publication PMC4182091, “A Common Minimal Motif for the Ligands of HLA-B*27 Class I Molecules” (PLoS ONE, 2014).
Read-outs that look alike come from different tables or passages of the source. Ends that are not written are not given here.

Key:
Type in all cases: cell-based
HLA-B*2704 = HLA-B*2704 (Homo sapiens, UniProt P01889, A235G/D138H/D201E/E204Q/G107R/H137Y/K202T/N104T/N87E/Q56L/Q94K/R106L/R155S/R180L/S121N/S48T/Y140D/Y33H/Y91C); experiment: HLA/peptide complex stability assay, RMA-S cells transfected with HLA-B*2704; settings: for fluorescence index, B*2704: peptide 200 µM
HLA-B*2705 = biological target: T1, HLA-B*2705 (Homo sapiens, UniProt P01889, D138H/D201E/E176V/E204Q/G107R/H137Y/K202T/N104T/N87E/Q56L/Q94K/R106L/R155S/R180L/S101D/S121N/S48T/Y140D/Y33H/Y91C); experiment: HLA/peptide complex stability assay, RMA-S cells transfected with HLA-B*2705; settings: for fluorescence index, B*2705: peptide 200 µM
T1 construct: expressed in transfected cells; host or cells: RMA-S (TAP-deficient murine cell line)

HLA-B*2706 = biological target: T2, HLA-B*2706 (Homo sapiens, UniProt P01889, A235G/D201E/E204Q/G107R/H137Y/K202T/N104T/N87E/Q56L/Q94K/R106L/R155S/R180L/S121N/S48T/Y33H/Y91C); experiment: HLA/peptide complex stability assay, RMA-S cells transfected with HLA-B*2706; settings: for fluorescence index, B*2706: peptide 200 µM
T2 construct: expressed in transfected cells; host or cells: RMA-S (TAP-deficient murine cell line)

HLA-B*2702 = HLA-B*2702 (Homo sapiens, UniProt P01889, D138H/D201E/E176V/E204Q/G107R/H137Y/K202T/L105A/N104I/N87E/Q56L/Q94K/R106L/R155S/R180L/S101N/S121N/S48T/Y140D/Y33H/Y91C); experiment: HLA/peptide complex stability assay, RMA-S cells transfected with HLA-B*2702; settings: for fluorescence index, B*2702: peptide 200 µM
HLA-B*2709 = biological target: T3, HLA-B*2709 (Homo sapiens, UniProt P01889, D138H/D201E/E176V/E204Q/G107R/H137Y/K202T/N104T/N87E/Q56L/Q94K/R106L/R155S/R180L/S101D/S121N/S48T/Y140H/Y33H/Y91C); experiment: HLA/peptide complex stability assay, RMA-S cells transfected with HLA-B*2709; settings: for fluorescence index, B*2709: peptide 200 µM
T3 construct: expressed in transfected cells; host or cells: RMA-S (TAP-deficient murine cell line)

HLA-B*2701 = biological target: T4, HLA-B*2701 (Homo sapiens, UniProt P01889, D138H/D201E/D98Y/E176V/E204Q/G107R/H137Y/K202T/L105A/N104T/N87E/Q56L/Q94K/R106L/R155S/R180L/S101N/S121N/S48T/Y140D/Y33H/Y91C); experiment: HLA/peptide complex stability assay, RMA-S cells transfected with HLA-B*2701; settings: for fluorescence index, B*2701: peptide 200 µM
T4 construct: expressed in transfected cells; host or cells: RMA-S (TAP-deficient murine cell line)

HLA-B*2703 = biological target: T5, HLA-B*2703 (Homo sapiens, UniProt P01889, D138H/D201E/E176V/E204Q/G107R/H137Y/K202T/N104T/N87E/Q56L/Q94K/R106L/R155S/R180L/S101D/S121N/S48T/Y140D/Y33H/Y83H/Y91C); experiment: HLA/peptide complex stability assay, RMA-S cells transfected with HLA-B*2703; settings: for fluorescence index, B*2703: peptide 200 µM
T5 construct: expressed in transfected cells; host or cells: RMA-S (TAP-deficient murine cell line)

[1] = mean ± S.D. of three to five independent experiments, SD
[2] = relative affinity (EC50 class), B*2704
[3] = relative affinity (EC50 class), B*2705
[4] = relative affinity (EC50 class), B*2706
[5] = relative affinity (EC50 class), B*2702
[6] = relative affinity (EC50 class), B*2709
[7] = relative affinity (EC50 class), B*2701
[8] = relative affinity (EC50 class), B*2703

Sequence	EC50 (HLA-B*2704; EC50, B*2704, SD) [µM]	EC50 (HLA-B*2704; [2]) [µM]	relative MHC class I affinity according to the EC50 value, in words (high, medium, low) (HLA-B*2705)	EC50 (HLA-B*2705; EC50, B*2705, SD) [µM]	EC50 (HLA-B*2706; [4]) [µM]	EC50 (HLA-B*2702; [5]) [µM]	EC50 (HLA-B*2709; EC50, B*2709, SD) [µM]	EC50 (HLA-B*2709; [6]) [µM]	EC50 (HLA-B*2701; read-out: EC50, B*2701) [µM]	EC50 (HLA-B*2701; [7]) [µM]	EC50 (HLA-B*2703; EC50, B*2703, SD) [µM]	EC50 (HLA-B*2703; [8]) [µM]	EC50 (HLA-B*2706; EC50, B*2706, SD) [µM]	EC50 (HLA-B*2702; EC50, B*2702, SD) [µM]	other results
ARANNVLKNEM [A1-NP 184-194, monosubstituted Ala analog of HRSV NP 184-194, […]]															fluorescence index, B*2704 (HLA-B*2704; [1]): 2.2±0.2; fluorescence index, B*2705 (HLA-B*2705; [1]): 2.4±0.3; fluorescence index, B*2706 (HLA-B*2706; [1]): 3.0±0.3; fluorescence index, B*2702 (HLA-B*2702; [1]): 2.0±0.3; fluorescence index, B*2709 (HLA-B*2709; [1]): 1.8±0.1; fluorescence index, B*2701 (HLA-B*2701; [1]): 2.0±0.1; fluorescence index, B*2703 (HLA-B*2703; [1]): 1.4±0.1
ARYKGLLPKDI [A1-NP 195-205, monosubstituted Ala analog of HRSV NP 195-205, […]]															fluorescence index, B*2704 (HLA-B*2704; [1]): 2.2±0.3; fluorescence index, B*2705 (HLA-B*2705; [1]): 2.4±0.3; fluorescence index, B*2706 (HLA-B*2706; [1]): 2.7±0.3; fluorescence index, B*2702 (HLA-B*2702; [1]): 1.8±0.1; fluorescence index, B*2709 (HLA-B*2709; [1]): 1.8±0.2; fluorescence index, B*2701 (HLA-B*2701; [1]): 1.9±0.1; fluorescence index, B*2703 (HLA-B*2703; [1]): 2.1±0.2
GRNEVFSNK [L 2089-2097]	169 ± 57	61 to 200	medium	32 ± 6	> 200	> 200	68 ± 24	61 to 200	> 200	> 200	71 ± 28	61 to 200			EC50 (HLA-B*2705; [3]): 20 to 60 µM; EC50 (HLA-B*2706; EC50, B*2706): > 200 µM; EC50 (HLA-B*2702; EC50, B*2702): > 200 µM
HRFIYLINH [NS2 37-45]	78 ± 33	61 to 200	high	7 ± 4	20 to 60	61 to 200	33 ± 9	20 to 60	> 200	> 200	10 ± 5		45 ± 19	77 ± 14	
HRQDINGKEM [NP 100-109]	67 ± 27	61 to 200	medium	50 ± 15		61 to 200	24 ± 7	20 to 60		> 200	96 ± 43	61 to 200	3 ± 2	132 ± 53	EC50 (HLA-B*2705; [3]): 20 to 60 µM; EC50 (HLA-B*2701; EC50, B*2701): > 200 µM
KRAVGIGAL [HIV gp160 500-508, reference compound]															EC50 (HLA-B*2704; Table 2, peptide concentration at 50% of maximum fluorescence, range 0.01–200 µM, transfected RMA-S cells, flow cytometry, mean ± S.D. of three to five independent experiments, - = no statistical difference in fluorescence index to negative control, SD, read-out: EC50, B*2704): 24 ± 8 µM; EC50 (HLA-B*2704; Table 3, classes of EC50 from stabilization assay in transfected RMA-S cells, read-out: relative affinity (EC50 class), B*2704): 20 to 60 µM; EC50 (HLA-B*2705; Table 2, peptide concentration at 50% of maximum fluorescence, range 0.01–200 µM, transfected RMA-S cells, flow cytometry, mean ± S.D. of three to five independent experiments, - = no statistical difference in fluorescence index to negative control, SD, read-out: EC50, B*2705): 12 ± 3 µM; EC50 (HLA-B*2706; Table 2, peptide concentration at 50% of maximum fluorescence, range 0.01–200 µM, transfected RMA-S cells, flow cytometry, mean ± S.D. of three to five independent experiments, - = no statistical difference in fluorescence index to negative control, SD, read-out: EC50, B*2706): 1 ± 1 µM; EC50 (HLA-B*2702; Table 2, peptide concentration at 50% of maximum fluorescence, range 0.01–200 µM, transfected RMA-S cells, flow cytometry, mean ± S.D. of three to five independent experiments, - = no statistical difference in fluorescence index to negative control, SD, read-out: EC50, B*2702): 16 ± 6 µM; EC50 (HLA-B*2709; Table 2, peptide concentration at 50% of maximum fluorescence, range 0.01–200 µM, transfected RMA-S cells, flow cytometry, mean ± S.D. of three to five independent experiments, - = no statistical difference in fluorescence index to negative control, SD, read-out: EC50, B*2709): 8 ± 1 µM; EC50 (HLA-B*2701; Table 2, peptide concentration at 50% of maximum fluorescence, range 0.01–200 µM, transfected RMA-S cells, flow cytometry, mean ± S.D. of three to five independent experiments, - = no statistical difference in fluorescence index to negative control, SD, read-out: EC50, B*2701): 17 ± 3 µM; EC50 (HLA-B*2703; Table 2, peptide concentration at 50% of maximum fluorescence, range 0.01–200 µM, transfected RMA-S cells, flow cytometry, mean ± S.D. of three to five independent experiments, - = no statistical difference in fluorescence index to negative control, SD, read-out: EC50, B*2703): 14 ± 7 µM
KRLPADVLKK [M2 150-159]	73 ± 9	61 to 200	high	18 ± 3	> 200	61 to 200	22 ± 9	20 to 60	> 200	> 200	78 ± 10	61 to 200		136 ± 63	EC50 (HLA-B*2706; EC50, B*2706): > 200 µM
KRYKGLLPKDI [NP 195-205]	16 ± 3		high	7 ± 5			7 ± 2				20 ± 11		1 ± 1	9 ± 1	EC50 (HLA-B*2701; EC50, B*2701, SD): 8 ± 1 µM
